The assay relates to MV-4-11 cells. The assay is described as follows: Gene expression microarray analysis (Affymetrix PrimeView) and GSEA. The conditions noted are these: MV-4-11 cells, 48 hours. It counts as cell-based, human. Also noted: RFU PODN (11730768_x_at) / Fold change /veh PODN (11730768_x_at) / RFU LINC00158 (11744669_a_at) / Fold change /veh LINC00158 (11744669_a_at) / RFU DUSP10 (11751237_a_at) / Fold change /veh DUSP10 (11751237_a_at) / RFU ID3 (11757404_x_at) / Fold change /veh ID3 (11757404_x_at) / RFU PLEKHG5 (11737974_s_at) / Fold change /veh PLEKHG5 (11737974_s_at) / RFU LRRC4B (11730491_at) / Fold change /veh LRRC4B (11730491_at) / RFU GIMAP4 (11747438_a_at) / Fold change /veh GIMAP4 (11747438_a_at) / RFU KRT8 (11758183_x_at) / Fold change /veh KRT8 (11758183_x_at) / RFU CNN1 (11734310_a_at) / Fold change /veh CNN1 (11734310_a_at) / RFU VPS37D (11726825_at) / Fold change /veh VPS37D (11726825_at) / RFU C10orf10 (11716522_x_at) / Fold change /veh C10orf10 (11716522_x_at) / RFU KIR2DL2 /// KIR2DL4 /// KIR2DL5A /// KIR2DL5B /// KIR2DS1 /// KIR2DS2 /// KIR2DS3 /// KIR2DS4 /// KIR3DL3 /// KIR3DL3 /// KIR3DS1 (11738374_at) / Fold change /veh KIR2DL2 /// KIR2DL4 /// KIR2DL5A /// KIR2DL5B /// KIR2DS1 /// KIR2DS2 /// KIR2DS3 /// KIR2DS4 /// KIR3DL3 /// KIR3DL3 /// KIR3DS1 (11738374_at) / RFU C1QL1 (11718748_at) / Fold change /veh C1QL1 (11718748_at) / RFU TMPRSS4 (11747572_a_at) / Fold change /veh TMPRSS4 (11747572_a_at) / RFU HAMP (11756126_x_at) / Fold change /veh HAMP (11756126_x_at) / RFU RNFT2 (11725882_a_at) / Fold change /veh RNFT2 (11725882_a_at) / RFU NR4A2 (11747474_a_at) / Fold change /veh NR4A2 (11747474_a_at) / RFU ABCC12 (11746883_a_at) / Fold change /veh ABCC12 (11746883_a_at) / RFU TMEM136 (11760407_x_at) / Fold change /veh TMEM136 (11760407_x_at) / RFU CLDN22 /// WWC2 (11732394_at) / Fold change /veh CLDN22 /// WWC2 (11732394_at) / RFU HLA-DPB1 (11760878_x_at) / Fold change /veh HLA-DPB1 (11760878_x_at) / RFU SPINT1 (11716480_a_at) / Fold change /veh SPINT1 (11716480_a_at) / RFU GAP43 (11754022_s_at) / Fold change /veh GAP43 (11754022_s_at) / RFU A4GNT (11735810_at) / Fold change /veh A4GNT (11735810_at) / RFU PRB3 (11715151_x_at) / Fold change /veh PRB3 (11715151_x_at) / RFU TUBB4B (11761932_at) / Fold change /veh TUBB4B (11761932_at) / RFU CAPN14 (11732068_a_at) / Fold change /veh CAPN14 (11732068_a_at) / RFU TMCC2 (11721928_a_at) / Fold change /veh TMCC2 (11721928_a_at) / RFU IRGQ (11745062_a_at) / Fold change /veh IRGQ (11745062_a_at) / RFU FAM174B (11720279_a_at) / Fold change /veh FAM174B (11720279_a_at) / RFU TMPRSS4 (11748680_a_at) / Fold change /veh TMPRSS4 (11748680_a_at) / RFU FAM212B (11763350_a_at) / Fold change /veh FAM212B (11763350_a_at) / RFU PLEKHG5 (11743358_a_at) / Fold change /veh PLEKHG5 (11743358_a_at) / RFU ZSCAN30 (11745921_a_at) / Fold change /veh ZSCAN30 (11745921_a_at) / RFU CMKLR1 (11741424_a_at) / Fold change /veh CMKLR1 (11741424_a_at) / RFU LOC101060620 /// MAPK8IP1 (11723275_at) / Fold change /veh LOC101060620 /// MAPK8IP1 (11723275_at) / RFU SPTSSB (11747773_x_at) / Fold change /veh SPTSSB (11747773_x_at) / RFU PRSS12 (11739890_at) / Fold change /veh PRSS12 (11739890_at) / RFU BIN1 (11741810_x_at) / Fold change /veh BIN1 (11741810_x_at) / RFU WNT11 (11732464_a_at) / Fold change /veh WNT11 (11732464_a_at) / RFU C10orf10 (11716521_a_at) / Fold change /veh C10orf10 (11716521_a_at) / RFU C5orf56 (11738089_at) / Fold change /veh C5orf56 (11738089_at) / RFU CYB561 (11721691_x_at) / Fold change /veh CYB561 (11721691_x_at) / RFU ANKRD19P (11752326_a_at) / Fold change /veh ANKRD19P (11752326_a_at) / RFU OR2T12 /// OR2T33 /// OR2T8 (11738714_s_at) / Fold change /veh OR2T12 /// OR2T33 /// OR2T8 (11738714_s_at) / RFU VCAN (11748164_a_at) / Fold change /veh VCAN (11748164_a_at) / RFU JSRP1 (11732532_at) / Fold change /veh JSRP1 (11732532_at) / RFU KRTAP10-11 (11738290_x_at) / Fold change /veh KRTAP10-11 (11738290_x_at) / RFU MYO3A (11730013_a_at) / Fold change /veh MYO3A (11730013_a_at) / RFU EBF3 (11725865_a_at) / Fold change /veh EBF3 (11725865_a_at) / RFU CAMK2N1 (11719241_x_at) / Fold change /veh CAMK2N1 (11719241_x_at) / RFU C5orf56 (11738088_a_at) / Fold change /veh C5orf56 (11738088_a_at) / RFU OLFML3 (11715873_a_at) / Fold change /veh OLFML3 (11715873_a_at) / RFU LOC100653217 /// NTM (11731650_a_at) / Fold change /veh LOC100653217 /// NTM (11731650_a_at) / RFU MAPK11 (11762145_a_at) / Fold change /veh MAPK11 (11762145_a_at) / RFU FIZ1 (11724087_x_at) / Fold change /veh FIZ1 (11724087_x_at) / RFU OASL (11726364_x_at) / Fold change /veh OASL (11726364_x_at) / RFU SOX15 (11748057_x_at) / Fold change /veh SOX15 (11748057_x_at) / RFU CD79A (11719716_a_at) / Fold change /veh CD79A (11719716_a_at) / RFU HIST1H1D (11736915_at) / Fold change /veh HIST1H1D (11736915_at) / RFU CASKIN2 (11723855_a_at) / Fold change /veh CASKIN2 (11723855_a_at) / RFU LOC730098 (11760151_x_at) / Fold change /veh LOC730098 (11760151_x_at) / RFU OR4N2 (11742367_at) / Fold change /veh OR4N2 (11742367_at) / RFU PRRT2 (11749266_a_at) / Fold change /veh PRRT2 (11749266_a_at) / RFU SNX32 (11753110_a_at) / Fold change /veh SNX32 (11753110_a_at) / RFU CDHR5 (11726645_a_at) / Fold change /veh CDHR5 (11726645_a_at) / RFU RCAN1 (11760418_a_at) / Fold change /veh RCAN1 (11760418_a_at) / RFU FAM167A (11723789_a_at) / Fold change /veh FAM167A (11723789_a_at) / RFU FAM26E (11764081_at) / Fold change /veh FAM26E (11764081_at) / RFU ISYNA1 (11749810_s_at) / Fold change /veh ISYNA1 (11749810_s_at) / RFU ACY1 (11761880_at) / Fold change /veh ACY1 (11761880_at) / RFU 11764098_at / Fold change /veh 11764098_at / RFU SAMD14 (11745864_x_at) / Fold change /veh SAMD14 (11745864_x_at) / RFU NPB (11741838_a_at) / Fold change /veh NPB (11741838_a_at) / RFU TMPRSS6 (11731388_a_at) / Fold change /veh TMPRSS6 (11731388_a_at) / RFU KRTAP10-2 (11738614_at) / Fold change /veh KRTAP10-2 (11738614_at) / RFU ARHGAP8 /// PRR5-ARHGAP8 (11727945_x_at) / Fold change /veh ARHGAP8 /// PRR5-ARHGAP8 (11727945_x_at) / RFU KRTAP5-7 /// NADSYN1 (11734609_at) / Fold change /veh KRTAP5-7 /// NADSYN1 (11734609_at) / RFU RASL12 (11751679_a_at) / Fold change /veh RASL12 (11751679_a_at) / RFU CDKN2B (11736163_a_at) / Fold change /veh CDKN2B (11736163_a_at) / RFU PRF1 (11729649_at) / Fold change /veh PRF1 (11729649_at) / RFU, ZNF638 /// ZNF638-IT1 / Fold change vs veh, ZNF638 /// ZNF638-IT1 / RFU, PANK3 / Fold change vs veh, PANK3 / RFU, SH3YL1 / Fold change vs veh, SH3YL1 / RFU, ZEB2 / Fold change vs veh, ZEB2 / RFU, NRIP1 / Fold change vs veh, NRIP1 / RFU, PTTG1IP / Fold change vs veh, PTTG1IP / RFU, CAPN2 / Fold change vs veh, CAPN2 / RFU, MED14 / Fold change vs veh, MED14 / RFU, SNORA58 / Fold change vs veh, SNORA58 / RFU, C1orf63 / Fold change vs veh, C1orf63 / RFU, LRRFIP1 / Fold change vs veh, LRRFIP1 / RFU, NDUFAF7 / Fold change vs veh, NDUFAF7 / RFU, SLC12A2 / Fold change vs veh, SLC12A2 / RFU, IBTK / Fold change vs veh, IBTK / RFU, ESF1 / Fold change vs veh, ESF1 / Fold change vs veh, TMEM50B / RFU, TAOK1 / Fold change vs veh, TAOK1 / RFU, ACBD3 / Fold change vs veh, ACBD3 / RFU, TMA16 / Fold change vs veh, TMA16 / RFU, RWDD3 / Fold change vs veh, RWDD3 / RFU, BCAT1 / Fold change vs veh, BCAT1 / RFU, EDEM3 / Fold change vs veh, EDEM3 / RFU, TMEM33 / Fold change vs veh, TMEM33 / RFU, WDR75 / Fold change vs veh, WDR75 / RFU, AHCTF1 / Fold change vs veh, AHCTF1 / RFU, TFRC / Fold change vs veh, TFRC / RFU, ZDHHC17 / Fold change vs veh, ZDHHC17 / RFU, NOM1 / Fold change vs veh, NOM1 / RFU, ARL8B / Fold change vs veh, ARL8B / RFU, ZBTB11 / Fold change vs veh, ZBTB11 / RFU, TAMM41 / Fold change vs veh, TAMM41 / RFU, KIAA1704 /// LOC100996395 / Fold change vs veh, KIAA1704 /// LOC100996395 / RFU, ING1 / Fold change vs veh, ING1 / RFU, TRMT61B / Fold change vs veh, TRMT61B / RFU, FUBP3 / Fold change vs veh, FUBP3 / RFU, TP53 / Fold change vs veh, TP53 / RFU, TNKS2 / Fold change vs veh, TNKS2 / RFU, ZFP14 / Fold change vs veh, ZFP14 / RFU, ACTR2 / Fold change vs veh, ACTR2 / RFU, PPP3R1 / Fold change vs veh, PPP3R1 / RFU, PIK3R1 / Fold change vs veh, PIK3R1 / RFU, HNRNPA1 / Fold change vs veh, HNRNPA1 / RFU, RNF170 / Fold change vs veh, RNF170 / RFU, ZNF28 / Fold change vs veh, ZNF28 / RFU, RNGTT / Fold change vs veh, RNGTT / RFU, OGT / Fold change vs veh, OGT / RFU, BRD1 / Fold change vs veh, BRD1 / RFU, MARS / Fold change vs veh, MARS / RFU, ZNF655 / Fold change vs veh, ZNF655 / RFU, FAHD1 / Fold change vs veh, FAHD1 / RFU, BDP1 / Fold change vs veh, BDP1 / RFU, LRRCC1 / Fold change vs veh, LRRCC1 / RFU, ARID1A / Fold change vs veh, ARID1A / RFU, ZNF146 / Fold change vs veh, ZNF146 / RFU, ZNF330 / Fold change vs veh, ZNF330 / RFU, GPN3 / Fold change vs veh, GPN3 / RFU, C9orf123 / Fold change vs veh, C9orf123 / RFU, N4BP2L2 / Fold change vs veh, N4BP2L2 / RFU, ARFIP1 / Fold change vs veh, ARFIP1 / RFU, FAM179B / Fold change vs veh, FAM179B / RFU, BCL10 / Fold change vs veh, BCL10 / RFU, UHRF1BP1L / Fold change vs veh, UHRF1BP1L / RFU, BET1 / Fold change vs veh, BET1 / RFU, CNOT2 / Fold change vs veh, CNOT2 / RFU, ZNF268 / Fold change vs veh, ZNF268 / Fold change vs veh, ZNF507 / RFU, DGCR2 / Fold change vs veh, DGCR2 / RFU, WDSUB1 / Fold change vs veh, WDSUB1 / Fold change vs veh, HSP90B1 /// MIR3652 / RFU, ADSS / Fold change vs veh, ADSS / RFU, GK / Fold change vs veh, GK / RFU, ZNF148 / Fold change vs veh, ZNF148 / RFU, TAF9 / Fold change vs veh, TAF9 / RFU, SLC1A5 / Fold change vs veh, SLC1A5 / RFU, SLMO2 / Fold change vs veh, SLMO2 / RFU, ABCC4 / Fold change vs veh, ABCC4 / RFU, LOC101060439 /// RAP1B / Fold change vs veh, LOC101060439 /// RAP1B / RFU, RFX7 / Fold change vs veh, RFX7 / RFU, GTPBP10 / Fold change vs veh, GTPBP10 / RFU, CNEP1R1 / Fold change vs veh, CNEP1R1 / RFU, BIVM-ERCC5 /// ERCC5 / Fold change vs veh, BIVM-ERCC5 /// ERCC5 / RFU, ILF3 / Fold change vs veh, ILF3 / RFU 11762660_at / Fold change /veh 11762660_at / RFU VCAN (11757783_s_at) / Fold change /veh VCAN (11757783_s_at) / RFU DDX43 (11728927_at) / Fold change /veh DDX43 (11728927_at) / RFU KRT8 (11758188_x_at) / Fold change /veh KRT8 (11758188_x_at) / RFU NKD1 (11759106_at) / Fold change /veh NKD1 (11759106_at) / RFU SRD5A1 (11742802_a_at) / Fold change /veh SRD5A1 (11742802_a_at) / RFU TPSAB1 /// TPSB2 (11721975_s_at) / Fold change /veh TPSAB1 /// TPSB2 (11721975_s_at) / RFU GSTM3 (11746129_a_at) / Fold change /veh GSTM3 (11746129_a_at) / RFU IL23R (11737362_x_at) / Fold change /veh IL23R (11737362_x_at) / RFU TMEM51 (11727254_a_at) / Fold change /veh TMEM51 (11727254_a_at) / RFU PIWIL2 (11732686_x_at) / Fold change /veh PIWIL2 (11732686_x_at) / RFU ORM1 (11744905_x_at) / Fold change /veh ORM1 (11744905_x_at) / RFU CCDC152 (11743942_at) / Fold change /veh CCDC152 (11743942_at) / RFU ECM1 (11717891_a_at) / Fold change /veh ECM1 (11717891_a_at) / RFU IL23R (11748794_a_at) / Fold change /veh IL23R (11748794_a_at) / RFU TNFAIP8L3 (11732012_x_at) / Fold change /veh TNFAIP8L3 (11732012_x_at) / RFU MBOAT4 (11741988_at) / Fold change /veh MBOAT4 (11741988_at) / RFU 11764193_at / Fold change /veh 11764193_at / RFU TMEM53 (11763286_at) / Fold change /veh TMEM53 (11763286_at) / RFU MAGEB2 (11727129_at) / Fold change /veh MAGEB2 (11727129_at) / RFU TMEM200A (11744735_a_at) / Fold change /veh TMEM200A (11744735_a_at) / RFU CCDC152 (11751479_a_at) / Fold change /veh CCDC152 (11751479_a_at) / RFU FAM211A (11726209_a_at) / Fold change /veh FAM211A (11726209_a_at) / RFU RGS16 (11746705_a_at) / Fold change /veh RGS16 (11746705_a_at) / RFU VCAN (11755009_s_at) / Fold change /veh VCAN (11755009_s_at) / RFU RHOB (11743442_s_at) / Fold change /veh RHOB (11743442_s_at) / RFU RGS16 (11720943_a_at) / Fold change /veh RGS16 (11720943_a_at) / RFU RGS16 (11720944_at) / Fold change /veh RGS16 (11720944_at) / RFU, VPS4B / Fold change vs veh, VPS4B / RFU, CREB1 / Fold change vs veh, CREB1 / RFU, DNAJC13 / Fold change vs veh, DNAJC13 / RFU, GNAQ / Fold change vs veh, GNAQ / RFU, CDK5R1 / Fold change vs veh, CDK5R1 / RFU, ZRANB3 / Fold change vs veh, ZRANB3 / RFU, CUL4A / Fold change vs veh, CUL4A / RFU, CCNY / Fold change vs veh, CCNY / RFU, UFL1 / Fold change vs veh, UFL1 / RFU, COG3 / Fold change vs veh, COG3 / RFU, DIAPH2 / Fold change vs veh, DIAPH2 / RFU, SKA2 / Fold change vs veh, SKA2 / RFU, AFF3 / Fold change vs veh, AFF3 / RFU, LMF1 / Fold change vs veh, LMF1 / RFU, IPO11 / Fold change vs veh, IPO11 / RFU, DFFB / Fold change vs veh, DFFB / RFU, FOXP1 / Fold change vs veh, FOXP1 / RFU, CARD8 / Fold change vs veh, CARD8 / RFU, STRN3 / Fold change vs veh, STRN3 / RFU, ADK / Fold change vs veh, ADK / RFU, RASSF2 / Fold change vs veh, RASSF2 / RFU, WIPF1 / Fold change vs veh, WIPF1 / RFU, LARP1B / Fold change vs veh, LARP1B / RFU, RASA1 / Fold change vs veh, RASA1 / RFU, RB1 / Fold change vs veh, RB1 / RFU, PPFIA1 / Fold change vs veh, PPFIA1 / RFU, MAT2A / Fold change vs veh, MAT2A / RFU, CCT5 / Fold change vs veh, CCT5 / RFU, WDR92 / Fold change vs veh, WDR92 / RFU, CUX1 / Fold change vs veh, CUX1 / RFU, TTC7A / Fold change vs veh, TTC7A / RFU, TMEM135 / Fold change vs veh, TMEM135 / RFU, DEPTOR / Fold change vs veh, DEPTOR / RFU, CPM / Fold change vs veh, CPM / RFU, DNAJB6 / Fold change vs veh, DNAJB6 / RFU, CACNA2D3 / Fold change vs veh, CACNA2D3 / RFU, DTX4 / Fold change vs veh, DTX4 / RFU, TFCP2 / Fold change vs veh, TFCP2 / RFU, GMCL1 /// GMCL1P1 / Fold change vs veh, GMCL1 /// GMCL1P1 / RFU, AEBP2 / Fold change vs veh, AEBP2 / RFU, SNHG1 /// SNORD22 /// SNORD25 /// SNORD26 /// SNORD27 /// SNORD28 /// SNORD29 /// SNORD31 / Fold change vs veh, SNHG1 /// SNORD22 /// SNORD25 /// SNORD26 /// SNORD27 /// SNORD28 /// SNORD29 /// SNORD31 / Fold change (Aza/veh), C12orf56 (ProbeSet 11735607_a_at) / Fold change (ACY-1035/veh), C12orf56 (ProbeSet 11735607_a_at) / Fold change (Aza/veh), FGFR1OP (ProbeSet 11751329_s_at) / Fold change (ACY-1035/veh), FGFR1OP (ProbeSet 11751329_s_at) / Fold change (Aza/veh), VPS36 (ProbeSet 11739960_a_at) / Fold change (ACY-1035/veh), VPS36 (ProbeSet 11739960_a_at) / RFU SYPL1 (11715823_x_at) / Fold change /veh SYPL1 (11715823_x_at) / RFU IGFBP7 (11715501_s_at) / Fold change /veh IGFBP7 (11715501_s_at) / RFU REEP3 (11722064_at) / Fold change /veh REEP3 (11722064_at) / RFU IGLL1 (11728026_x_at) / Fold change /veh IGLL1 (11728026_x_at): dose or concentration left out as unconfirmed.

For `Nc1ncn([C@@H]2O[C@H](CO)[C@@H](O)[C@H]2O)c(=O)n1` [azacitidine], the “Fold change /veh SPINT1 (11716480_a_at)” value is on record as 1.00.

Values taken from article PMC5218480 (PLoS ONE, 2017).
